In PubChem BioAssay (NCI):
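Compound exposure: 48 hours, 5 concentrations, 96-well plates. Here, GI50 denotes the concentration required for 50% inhibition of growth. Definition used: TGI = concentration required for complete inhibition of growth.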

What was measured:
Assay in all cases: NCI tumour cell line growth inhibition, 48 h
U251 CNS = tested on: U251 CNS
SNB-19 CNS = tested on: SNB-19 CNS
CAKI-1 renal = tested on: CAKI-1 renal
OVCAR-3 ovarian = tested on: OVCAR-3 ovarian
NCI/ADR-RES ovarian = tested on: NCI/ADR-RES ovarian
HOP-62 NSCLC = tested on: HOP-62 NSCLC
CCRF-CEM leukemia = tested on: CCRF-CEM leukemia
OVCAR-5 ovarian = tested on: OVCAR-5 ovarian
COLO 205 colon = tested on: COLO 205 colon
SK-OV-3 ovarian = tested on: SK-OV-3 ovarian

Structure (SMILES) | GI50 (U251 CNS) [µM] | TGI (U251 CNS) [µM] | GI50 (SNB-19 CNS) [µM] | TGI (SNB-19 CNS) [µM] | GI50 (CAKI-1 renal) [µM] | TGI (CAKI-1 renal) [µM] | GI50 (OVCAR-3 ovarian) [µM] | TGI (OVCAR-3 ovarian) [µM] | GI50 (NCI/ADR-RES ovarian) [µM] | TGI (NCI/ADR-RES ovarian) [µM] | GI50 (HOP-62 NSCLC) [µM] | TGI (HOP-62 NSCLC) [µM] | GI50 (CCRF-CEM leukemia) [µM] | TGI (CCRF-CEM leukemia) [µM] | GI50 (OVCAR-5 ovarian) [µM] | TGI (OVCAR-5 ovarian) [µM] | GI50 (COLO 205 colon) [µM] | TGI (COLO 205 colon) [µM] | GI50 (SK-OV-3 ovarian) [µM] | TGI (SK-OV-3 ovarian) [µM]
O=[N+]([O-])c1ccc(N/N=C\c2cc(Cl)ccc2O)nc1 | 0.51 | 12.1 | 3.41 | > 100 | 0.278 | 1.07 | 0.42 | 12.1 | 0.388 | 8.32 | 1.96 | 11.9 | 0.386 | > 100 | 8.88 | > 100 | 5.06 | > 100 | 4.25 | 37.3
Nc1ccn(C=C=CCO)c(=O)n1 | > 1000 | > 1000 | > 1000 | > 1000 | > 1000 | > 1000 | > 1000 | > 1000 | > 1000 | > 1000 | > 1000 | > 1000 | – | > 1000 | > 1000 | > 1000 | > 1000 | > 1000 | > 1000 | > 1000
C[C@H]1[C@H](OC(=O)CCC(=O)O)O[C@@H]2O[C@]3(C)CC[C@H]4[C@H](C)CC[C@@H]1[C@@]24OO3 | 0.503 | 18.5 | 1.62 | > 100 | 0.532 | 36 | 0.415 | 15.2 | 0.482 | 6.15 | 3.68 | 27.3 | 0.452 | 19.7 | 0.669 | 20.5 | 0.341 | 1.37 | 16.7 | > 89
O/N=C1\CCc2cc(-c3nc(C4CCNCC4)[nH]c3-c3ccncc3)ccc21 | > 25 | > 25 | > 25 | > 25 | > 25 | > 25 | > 25 | > 25 | > 25 | > 25 | > 25 | > 25 | > 25 | > 25 | > 25 | > 25 | 2.78 | > 25 | > 25 | > 25
COc1cccc(NC(=O)c2sc3nc4c(cc3c2N)CCCC4)c1 | 0.607 | 19.2 | 0.813 | 53.5 | 0.503 | 66.3 | 0.329 | 2.38 | 0.485 | > 100 | 0.59 | 18.2 | 0.347 | 19.2 | 3.31 | > 100 | 3.83 | > 100 | 0.473 | 29.4
